Laboratory results from PMC8004729, “Multifunctional Tyrosinase Inhibitor Peptides with Copper Chelating, UV-Absorption and Antioxidant Activities: Kinetic and Docking Studies” (Foods, 2021).
“Also recorded” adds a separate entry of the source. Marks after values point to notes of the source that are not given here. Residues, ends and D or L forms follow the SMILES beside them.

Assays:
Mushroom tyrosinase [1] = target: T1, Mushroom tyrosinase (Agaricus bisporus, UniProt C7FF04); assay: Diphenolase inhibitory activity of tyrosinase (ʟ-DOPA as substrate) and Lineweaver–Burk mode of inhibition; type: biochemical; conditions: diphenolase reaction; for Mode of Inhibition: Lineweaver–Burk plot, [S] 0.125 to 0.5 mM, different peptide concentrations
T1 construct: purchased Sigma-Aldrich
Protocol: (§1) The monophenolase and diphenolase inhibitory activities of tyrosinase were determined by using ʟ-tyrosine and ʟ-DOPA as substrates, respectively, as previously described. Various concentrations of peptides were tested to determine the IC50 values, i.e., the concentration of peptides required to inhibit half of the tyrosinase activities. The activities of monophenolase and diphenolase reactions were determined through the measurement of the rate of formation of dopachrome in the presence of substrate concentrations, [S] ranging from 0.125 to 0.5 mM. The initial velocity, V of the reaction was determined using the Beer–Lambert law:(1) ΔA=ε l Δc (2) V=ΔC/t=ΔA/ε l t where ΔC/t denotes the rate of change of the solution concentration; ΔA/t denotes the rate of change of absorbance i.e., slope of the reaction; ε denotes the molar extinction coefficient of dopachrome (3700 M^−1 cm^−1) and l denotes the pathlength.
Target sequence in this assay (C7FF04 1-392 limits assumed): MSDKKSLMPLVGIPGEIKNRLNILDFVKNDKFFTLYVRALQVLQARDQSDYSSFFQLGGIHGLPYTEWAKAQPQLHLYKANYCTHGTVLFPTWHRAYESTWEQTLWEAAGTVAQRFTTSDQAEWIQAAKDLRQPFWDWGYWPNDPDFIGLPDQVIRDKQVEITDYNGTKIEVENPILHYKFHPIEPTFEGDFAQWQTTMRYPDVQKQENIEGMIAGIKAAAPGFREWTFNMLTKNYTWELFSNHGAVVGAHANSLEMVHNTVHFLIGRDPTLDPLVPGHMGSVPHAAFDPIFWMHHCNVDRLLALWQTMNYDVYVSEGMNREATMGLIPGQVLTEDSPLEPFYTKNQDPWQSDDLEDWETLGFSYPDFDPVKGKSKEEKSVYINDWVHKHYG

[2] = Copper chelating activity (pyrocatechol violet); conditions: peptide 10 mg/mL, 50 mM sodium acetate buffer pH 6.0, absorbance 632 nm, mean ± standard deviation (n = 3), SD
Protocol: The copper chelating activity was determined according to Kubglomsong et al.. Briefly, 4 mM of chromogenic reagent, i.e., pyrocatechol violet was prepared in 50 mM sodium acetate buffer (pH 6.0). Then, 10 µL of peptide sample (10 mg/mL), 280 µL sodium acetate buffer, 10 µL CuSO4∙5H2O and lastly 6 µL pyrocatechol violet were added to a 96-well plate. The sample solution was mixed well and the absorbance was measured at 632 nm using a spectrophotometer (Spectramax M5, Molecular Devices, San Jose, CA, USA). Ethylenediaminetetraacetic acid (EDTA) was used as the positive control. The copper chelating activity is calculated as follows:(3) Copper chelating activity %=Acontrol−Asample/Acontrol×100 where Acontrol denotes the absorbance of the system containing sodium acetate buffer, pyrocatechol violet and CuSO4∙5H2O whereas Asample denotes the absorbance of the system containing peptide, sodium acetate buffer, pyrocatechol violet and CuSO4∙5H2O.

[3] = DPPH free radical scavenging assay; conditions: peptide 10 mg/mL; 0.1 mM DPPH in ethanol, 30 °C for 30 min; absorbance 517 nm; mean ± standard deviation (n = 3); SD
Protocol: The free radical scavenging potential of peptides was measured according to Blois. Briefly, 0.1 mM DPPH stock solution was prepared in ethanol. In a dark setting, 500 µL of DPPH was added to 16.65 µL peptide sample (10 mg/mL) and incubated at 30 °C for 30 min. The absorbance of the mixture was then monitored at 517 nm using a spectrophotometer. Gallic acid was used as the positive control. The DPPH free radical scavenging activity is calculated as follows:(6) DPPH free radical scavenging activity %=Acontrol−Asample/Acontrol×100 where Acontrol denotes the absorbance of the system containing DPPH and ethanol whereas Asample denotes the absorbance of the system containing DPPH and peptide sample.

[4] = ABTS free radical scavenging assay; conditions: peptide 10 mg/mL; dark, room temperature, 6 min; absorbance 734 nm; mean ± standard deviation (n = 3); SD
Protocol: The free radical scavenging potential of peptides was measured according to Cai, Luo, Sun and Corke. Briefly, ABTS reagent containing 7 mM ABTS and 2.45 mM ammonium persulfate were incubated in the dark at room temperature for 12–16 h. The reagent was diluted using 80% ethanol to an absorbance of 0.700 ± 0.005 at 734 nm. Then, 195 µL of the diluted ABTS reagent was added to 5 µL of peptide sample (10 mg/mL) and incubated in the dark at room temperature for 6 min. The absorbance of the sample at 734 nm was monitored immediately using a spectrophotometer. Gallic acid was used as the positive control. The ABTS free radical scavenging activity is calculated as follows:(5) ABTS free radical scavenging activity %=Acontrol−Asample/Acontrol×100 where Acontrol denotes the absorbance of the system containing ABTS and water whereas Asample denotes the absorbance of the system containing ABTS and peptide sample.

[5] = Ferric reducing antioxidant power (FRAP) assay; conditions: peptide 10 mg/mL; 37 °C for 1 h; absorbance 593 nm; mean ± standard deviation (n = 3); SD
Protocol: The reducing potential of peptides was measured according to Benzie and Strain [20]. ferric reducing antioxidant power (FRAP) reagent containing 300 mM acetate buffer (pH 3.6), 10 mM TPTZ prepared in 40 mM HCl and 20 mM FeCl3⸱6H2O in the ratio of 10:1:1 was incubated at 37 °C for 30 min. Then, 200 µL of FRAP reagent was added to 2.7 µL peptide sample (10 mg/mL) in a 96-well plate and mixed well before incubating at 37 °C for 1 h. The absorbance of the sample was then measured spectrophotometrically at 593 nm. Freshly prepared FRAP reagent was used for each run. A standard curve was prepared using FeSO4⸱7H2O at 0–3 mM. The peptide FRAP was expressed in mM FeSO4. Gallic acid was used as the positive control.

tyrosinase = target: tyrosinase; parameters: method as in 2 sources, ref 25 = [25]; PMID 10441774; doi:10.1002/(SICI)1099-1573(199908/09)13:5<371::AID-PTR453>3.0.CO;2-L; 25. Lim J.Y. Ishiguro K. Kubo I. Tyrosinase inhibitory p-Coumaric acid from Ginseng leaves Phytother. Res. 1999 13 371 375 10.1002/(SICI)1099-1573(199908/09)13:5<371::AID-PTR453>3.0.CO;2-L 10441774 ||| ref 26 = [26]; PMID 3141207; doi:10.1007/BF01941189; 26. Maddaluno J.F. Faull K.F. Inhibition of mushroom tyrosinase by 3-amino-L-tyrosines: Molecular probing of the active site of the enzyme Experientia 1988 44 885 887 10.1007/BF01941189 3141207; conditions: read-out: IC50 (tyrosinase mixed-type inhibitor); cited from earlier work
[6] = Sun protection factor (SPF) by UV spectrophotometry, Mansur equation; type: physicochemical; conditions: peptide 10 mg/mL, UVB 290–320 nm absorbance, CF 10, mean ± standard deviation (n = 3), SD
Protocol: The ability of peptides to absorb light in the UVB region (290–320 nm) was measured according to the methods described by Dutra, Kedor-Hackmann and Santoro [18]. The UV–Vis spectrophotometer was set to scan the peptide samples from 220 to 400 nm with a 5 nm increment. The SPF values of the peptide samples (10 mg/mL) were calculated using the Mansur equation:(4) SPF=CF×∑290320EEλ×Iλ×Absλ where CF denotes correction factor of 10 (for the short pathlength used); EE denotes erythemal effect spectrum; I denotes solar intensity spectrum and Abs denotes the absorbance of sample.

Mushroom tyrosinase [7] = target: T1, Mushroom tyrosinase; assay: Monophenolase inhibitory activity of tyrosinase (ʟ-tyrosine as substrate) and Lineweaver–Burk mode of inhibition; type: biochemical; conditions: monophenolase reaction; for Tyrosinase Activity Inhibition (%): substrate ʟ-tyrosine, peptide concentration 10 mg/mL, mean ± standard deviation (n = 3), SD; for Mode of Inhibition: Lineweaver–Burk plot, [S] 0.125 to 0.5 mM, different peptide concentrations
Protocol: as §1
Target sequence in this assay (C7FF04 1-392): as the sequence (C7FF04 1-392 limits assumed) above

[8] = substrate ʟ-DOPA, peptide concentration 10 mg/mL, mean ± standard deviation (n = 3), SD

Molecule | Copper Chelating Activity (%) [2] | Antioxidant Activity ABTS (%) free radical scavenging [4] | Antioxidant Activity FRAP (mM FeSO4) [5] | SPF [6] | Tyrosinase Activity Inhibition (%) (Mushroom tyrosinase [7]) | Mode of Inhibition (Mushroom tyrosinase [7]) | further results
CC(C)C[C@H](NC(=O)[C@H](CO)NC(=O)[C@H](Cc1ccc(O)cc1)NC(=O)CN)C(=O)NCC(=O)N[C@@H](CC(N)=O)C(=O)N[C@@H](Cc1c[nH]c2ccccc12)C(=O)N[C@H](C(=O)N[C@@H](CS)C(=O)N[C@@H](C)C(=O)N[C@@H](C)C(=O)N[C@@H](CCCCN)C(=O)O)C(C)C [DIP1] (H-GYSLGNWVCAAK-OH) |  |  |  |  |  |  | IC50 (Mushroom tyrosinase [1]; substrate ʟ-DOPA, mean ± standard deviation, SD): 3.04 ± 0.39 mM; inhibition at 10000 µg/mL (Mushroom tyrosinase [1]; [8]): 80 ± 2.79%
O=C(O)CN(CCN(CC(=O)O)CC(=O)O)CC(=O)O [EDTA, Ethylenediaminetetraacetic acid, reference compound] | 96.06 ± 0.03^e % |  |  |  |  |  | 
O=C(O)c1cc(O)c(O)c(O)c1 [Gallic acid, reference compound] |  | 83.14 ± 3.02 ^d % | 16.6 ± 0.36 ^c mM FeSO4 |  |  |  | Antioxidant Activity DPPH (%) free radical scavenging [3]: 81.67 ± 0.03 ^b %
O=C(O)/C=C/c1ccc(O)cc1 [p-coumaric acid] |  |  |  |  |  |  | IC50 (tyrosinase): < 0.36 mM
ADHPF [MIP1] | 94.33 ± 0.04 ^e % | 2.90 ± 0.28 ^b % | 0.035 ± 0.004 ^a mM FeSO4 | 1.80 ± 0.02 ^b | 35.86 ± 2.26 ^d % | competitive inhibitors | 
FDKLPGFGD [MIP3] | 94.43 ± 0.46 ^e % | 2.11% | 0.034 ± 0.002 ^a mM FeSO4 | 1.36 ± 0.02 ^a | 22.78 ± 1.12 ^b % | mixed-type inhibitor | 
FMMFESQNKDLLFK [DIP3] | 26.23 ± 1.03 ^c % | 0.99% |  | 1.98 ± 0.05 ^b |  |  | Tyrosinase Activity Inhibition (%) (Mushroom tyrosinase [1]; [8]): 28.95 ± 1.47 ^c %; Mode of Inhibition (Mushroom tyrosinase [1]): uncompetitive inhibitor
HIATNAVLFFGR [DIP2] | 19.13 ± 2.22 ^b % |  | 0.018 ± 0.001 ^a mM FeSO4 | 6.45 ± 0.40 ^d |  |  | Tyrosinase Activity Inhibition (%) (Mushroom tyrosinase [1]; [8]): 17.70 ± 2.66 ^a %; Mode of Inhibition (Mushroom tyrosinase [1]): weaker competitive inhibitor; also recorded: competitive inhibitors
ILELPFASGDLLML [MIP2] | 11.41 ± 0.13 ^a % | 1.44% |  | 3.12 ± 0.13 ^c | 17.26 ± 2.10 ^a % | weaker competitive inhibitor; also recorded: competitive inhibitors | 
